# Results taken from patent publication US7118895B2, “Process for producing aglycon by using diglycosidase and flavor-improved food containing the aglycon and converting agent to be used in the process” (Amano Enzyme Inc., priority 2000, dated 2006).
# Columns and labels:
# [1] = system: β-Glucosidase derived from almond; assay: Reactivity toward various isoflavone glycosides (HPLC); type: biochemical; design: unit not given here; details: 55 °C, pH 4.0
# Summary of the method: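 Enzymes at 0.75 AU/mL in pH 4.0 acetate buffer were reacted at 55° C with individual isoflavone glycosides (substrate stock 2 mM in methanol) in 20 mM acetate pH 4.0. Aglycone release followed at 0, 1, 3 and 6 h: ethanol-quenched, ODS HPLC with UV 260 nm, quantified against calibration curves.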
# Crude diglycosidase = assay: Examination of temperature in the conversion into isoflavone aglycons by diglycosidase using soybean materials; type: biochemical, Penicillium multicolor IAM7153; design: Decomposition efficiency of glycitin family in roasted soy flour / Decomposition efficiency of daidzin family in roasted soy flour / Decomposition efficiency of genistin family in soymilk / Decomposition efficiency of daidzin family in soymilk / Decomposition efficiency of glycitin family in defatted soybean / Decomposition efficiency of daidzin family in defatted soybean: concentration or dose not given beside the values
# Summary of the method: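 Soybean materials (50 mg) suspended in 20 mM acetate buffer pH 4.0 reacted with crude diglycosidase diluted to 1.88 AU/mL at 80, 65, 55, 45, 37 or 30° C. Reactions stopped with ethanol at 0, 1, 3 and 6 h; isoflavone glycosides and aglycons in supernatant detected by HPLC.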
# [2] = 30° C., heat treatment of enzyme no, reaction time 0 h
# [3] = 30° C., heat treatment of enzyme no, reaction time 1 h
# [4] = 30° C., heat treatment of enzyme no, reaction time 3 h
# [5] = 30° C., heat treatment of enzyme no, reaction time 6 h
# [6] = 30° C., heat treatment of enzyme yes, reaction time 6 h
# [7] = 30 °C, heat treatment of enzyme: no, 0 h
# [8] = 30 °C, heat treatment of enzyme: no, 1 h
# [9] = 30 °C, heat treatment of enzyme: no, 3 h
# [10] = 30 °C, heat treatment of enzyme: no, 6 h
# [11] = 30 °C, heat treatment of enzyme: yes, 6 h
# [12] = 45° C., heat treatment of enzyme no, reaction time 0 h
# [13] = 45° C., heat treatment of enzyme no, reaction time 1 h
# [14] = 45° C., heat treatment of enzyme no, reaction time 3 h
# [15] = 45° C., heat treatment of enzyme no, reaction time 6 h
# [16] = 45° C., heat treatment of enzyme yes, reaction time 6 h
# [17] = 45 °C, heat treatment of enzyme: no, 0 h
# [18] = 45 °C, heat treatment of enzyme: no, 1 h
# [19] = 45 °C, heat treatment of enzyme: no, 3 h
# [20] = 45 °C, heat treatment of enzyme: no, 6 h
# [21] = 45 °C, heat treatment of enzyme: yes, 6 h
# [22] = 55° C., heat treatment of enzyme no, reaction time 0 h
# [23] = 55° C., heat treatment of enzyme no, reaction time 1 h
# [24] = 55° C., heat treatment of enzyme no, reaction time 3 h
# [25] = 55° C., heat treatment of enzyme no, reaction time 6 h
# [26] = 55° C., heat treatment of enzyme yes, reaction time 6 h
# [27] = 55 °C, heat treatment of enzyme: no, 0 h
# [28] = 55 °C, heat treatment of enzyme: no, 1 h
# [29] = 55 °C, heat treatment of enzyme: no, 3 h
# [30] = 55 °C, heat treatment of enzyme: no, 6 h
# [31] = 55 °C, heat treatment of enzyme: yes, 6 h
# [32] = 65° C., heat treatment of enzyme no, reaction time 0 h
# [33] = 65° C., heat treatment of enzyme no, reaction time 1 h
# [34] = 65° C., heat treatment of enzyme no, reaction time 3 h
# [35] = 65° C., heat treatment of enzyme no, reaction time 6 h
# [36] = 65° C., heat treatment of enzyme yes, reaction time 6 h
# [37] = 65 °C, heat treatment of enzyme: no, 0 h
# [38] = 65 °C, heat treatment of enzyme: no, 1 h
# [39] = 65 °C, heat treatment of enzyme: no, 3 h
# [40] = 65 °C, heat treatment of enzyme: no, 6 h
# [41] = 65 °C, heat treatment of enzyme: yes, 6 h
# [42] = 80° C., heat treatment of enzyme no, reaction time 0 h
# [43] = 80° C., heat treatment of enzyme no, reaction time 1 h
# [44] = 80° C., heat treatment of enzyme no, reaction time 3 h
# [45] = 80° C., heat treatment of enzyme no, reaction time 6 h
# [46] = 80° C., heat treatment of enzyme yes, reaction time 6 h
# [47] = 80 °C, heat treatment of enzyme: no, 0 h
# [48] = 80 °C, heat treatment of enzyme: no, 1 h
# [49] = 80 °C, heat treatment of enzyme: no, 3 h
# [50] = 80 °C, heat treatment of enzyme: no, 6 h
# [51] = 80 °C, heat treatment of enzyme: yes, 6 h
smiles,measurement,setting,value
O=c1c(-c2ccc(O)cc2)coc2cc(O[C@@H]3O[C@H](CO)[C@@H](O)[C@H](O)[C@H]3O)cc(O)c12 [genistin],aglycon,[1]; Reaction time 0 h,0
same,glucoside,[1]; Reaction time 0 h,100
same,aglycon,[1]; Reaction time 1 h,9.4
same,glucoside,[1]; Reaction time 1 h,90.6
same,aglycon,[1]; Reaction time 3 h,11.4
same,glucoside,[1]; Reaction time 3 h,88.6
same,aglycon,[1]; Reaction time 6 h,11.8
same,glucoside,[1]; Reaction time 6 h,88.2
same,Decomposition efficiency of genistin family in concentrated soybean protein,Crude diglycosidase; [2],49.8%
same,Decomposition efficiency of genistin family in defatted soybean,Crude diglycosidase; [2],38.0%
same,Decomposition efficiency of genistin family in concentrated soybean protein,Crude diglycosidase; [3],41.1%
same,Decomposition efficiency of genistin family in defatted soybean,Crude diglycosidase; [3],not detected
same,Decomposition efficiency of genistin family in concentrated soybean protein,Crude diglycosidase; [4],30.3%
same,Decomposition efficiency of genistin family in defatted soybean,Crude diglycosidase; [4],not detected
same,Decomposition efficiency of genistin family in concentrated soybean protein,Crude diglycosidase; [5],19.7%
same,Decomposition efficiency of genistin family in defatted soybean,Crude diglycosidase; [5],7.6%
same,Decomposition efficiency of genistin family in concentrated soybean protein,Crude diglycosidase; [6],51.8%
same,Decomposition efficiency of genistin family in defatted soybean,Crude diglycosidase; [6],not detected
same,Decomposition efficiency of genistin family in roasted soy flour,Crude diglycosidase; [7],49.7%
same,Decomposition efficiency of genistin family in soymilk,Crude diglycosidase; [7],30.7%
same,Decomposition efficiency of genistin family in roasted soy flour,Crude diglycosidase; [8],25.7%
same,Decomposition efficiency of genistin family in soymilk,Crude diglycosidase; [8],not detected
same,Decomposition efficiency of genistin family in roasted soy flour,Crude diglycosidase; [9],12.0%
same,Decomposition efficiency of genistin family in soymilk,Crude diglycosidase; [9],not detected
same,Decomposition efficiency of genistin family in roasted soy flour,Crude diglycosidase; [10],5.5%
same,Decomposition efficiency of genistin family in soymilk,Crude diglycosidase; [10],not detected
same,Decomposition efficiency of genistin family in roasted soy flour,Crude diglycosidase; [11],50.3%
same,Decomposition efficiency of genistin family in soymilk,Crude diglycosidase; [11],31.2%
same,Decomposition efficiency of genistin family in concentrated soybean protein,Crude diglycosidase; [12],49.7%
same,Decomposition efficiency of genistin family in defatted soybean,Crude diglycosidase; [12],37.0%
same,Decomposition efficiency of genistin family in concentrated soybean protein,Crude diglycosidase; [13],22.2%
same,Decomposition efficiency of genistin family in defatted soybean,Crude diglycosidase; [13],0.9%
same,Decomposition efficiency of genistin family in concentrated soybean protein,Crude diglycosidase; [14],15.6%
same,Decomposition efficiency of genistin family in defatted soybean,Crude diglycosidase; [14],1.0%
same,Decomposition efficiency of genistin family in concentrated soybean protein,Crude diglycosidase; [15],5.3%
same,Decomposition efficiency of genistin family in defatted soybean,Crude diglycosidase; [15],1.0%
same,Decomposition efficiency of genistin family in concentrated soybean protein,Crude diglycosidase; [16],54.5%
same,Decomposition efficiency of genistin family in defatted soybean,Crude diglycosidase; [16],1.3%
same,Decomposition efficiency of genistin family in roasted soy flour,Crude diglycosidase; [17],50.2%
same,Decomposition efficiency of genistin family in soymilk,Crude diglycosidase; [17],31.0%
same,Decomposition efficiency of genistin family in roasted soy flour,Crude diglycosidase; [18],3.7%
same,Decomposition efficiency of genistin family in soymilk,Crude diglycosidase; [18],not detected
same,Decomposition efficiency of genistin family in roasted soy flour,Crude diglycosidase; [19],5.6%
same,Decomposition efficiency of genistin family in soymilk,Crude diglycosidase; [19],not detected
same,Decomposition efficiency of genistin family in roasted soy flour,Crude diglycosidase; [20],1.2%
same,Decomposition efficiency of genistin family in soymilk,Crude diglycosidase; [20],not detected
same,Decomposition efficiency of genistin family in roasted soy flour,Crude diglycosidase; [21],51.7%
same,Decomposition efficiency of genistin family in soymilk,Crude diglycosidase; [21],34.4%
same,Decomposition efficiency of genistin family in concentrated soybean protein,Crude diglycosidase; [22],50.1%
same,Decomposition efficiency of genistin family in defatted soybean,Crude diglycosidase; [22],38.0%
same,Decomposition efficiency of genistin family in concentrated soybean protein,Crude diglycosidase; [23],7.0%
same,Decomposition efficiency of genistin family in defatted soybean,Crude diglycosidase; [23],0.0%
same,Decomposition efficiency of genistin family in concentrated soybean protein,Crude diglycosidase; [24],0.8%
same,Decomposition efficiency of genistin family in defatted soybean,Crude diglycosidase; [24],0.0%
same,Decomposition efficiency of genistin family in concentrated soybean protein,Crude diglycosidase; [25],not detected
same,Decomposition efficiency of genistin family in defatted soybean,Crude diglycosidase; [25],0.0%
same,Decomposition efficiency of genistin family in concentrated soybean protein,Crude diglycosidase; [26],52.3%
same,Decomposition efficiency of genistin family in defatted soybean,Crude diglycosidase; [26],0.0%
same,Decomposition efficiency of genistin family in roasted soy flour,Crude diglycosidase; [27],49.7%
same,Decomposition efficiency of genistin family in soymilk,Crude diglycosidase; [27],31.6%
same,Decomposition efficiency of genistin family in roasted soy flour,Crude diglycosidase; [28],1.2%
same,Decomposition efficiency of genistin family in soymilk,Crude diglycosidase; [28],not detected
same,Decomposition efficiency of genistin family in roasted soy flour,Crude diglycosidase; [29],not detected
same,Decomposition efficiency of genistin family in soymilk,Crude diglycosidase; [29],not detected
same,Decomposition efficiency of genistin family in roasted soy flour,Crude diglycosidase; [30],not detected
same,Decomposition efficiency of genistin family in soymilk,Crude diglycosidase; [30],not detected
same,Decomposition efficiency of genistin family in roasted soy flour,Crude diglycosidase; [31],54.0%
same,Decomposition efficiency of genistin family in soymilk,Crude diglycosidase; [31],37.4%
same,Decomposition efficiency of genistin family in concentrated soybean protein,Crude diglycosidase; [32],49.8%
same,Decomposition efficiency of genistin family in defatted soybean,Crude diglycosidase; [32],37.0%
same,Decomposition efficiency of genistin family in concentrated soybean protein,Crude diglycosidase; [33],not detected
same,Decomposition efficiency of genistin family in defatted soybean,Crude diglycosidase; [33],0.0%
same,Decomposition efficiency of genistin family in concentrated soybean protein,Crude diglycosidase; [34],not detected
same,Decomposition efficiency of genistin family in defatted soybean,Crude diglycosidase; [34],1.8%
same,Decomposition efficiency of genistin family in concentrated soybean protein,Crude diglycosidase; [35],not detected
same,Decomposition efficiency of genistin family in defatted soybean,Crude diglycosidase; [35],3.3%
same,Decomposition efficiency of genistin family in concentrated soybean protein,Crude diglycosidase; [36],50.8%
same,Decomposition efficiency of genistin family in defatted soybean,Crude diglycosidase; [36],28.2%
same,Decomposition efficiency of genistin family in roasted soy flour,Crude diglycosidase; [37],49.7%
same,Decomposition efficiency of genistin family in soymilk,Crude diglycosidase; [37],30.7%
same,Decomposition efficiency of genistin family in roasted soy flour,Crude diglycosidase; [38],not detected
same,Decomposition efficiency of genistin family in soymilk,Crude diglycosidase; [38],not detected
same,Decomposition efficiency of genistin family in roasted soy flour,Crude diglycosidase; [39],not detected
same,Decomposition efficiency of genistin family in soymilk,Crude diglycosidase; [39],not detected
same,Decomposition efficiency of genistin family in roasted soy flour,Crude diglycosidase; [40],not detected
same,Decomposition efficiency of genistin family in soymilk,Crude diglycosidase; [40],not detected
same,Decomposition efficiency of genistin family in roasted soy flour,Crude diglycosidase; [41],50.7%
same,Decomposition efficiency of genistin family in soymilk,Crude diglycosidase; [41],44.4%
same,Decomposition efficiency of genistin family in concentrated soybean protein,Crude diglycosidase; [42],49.7%
same,Decomposition efficiency of genistin family in defatted soybean,Crude diglycosidase; [42],37.0%
same,Decomposition efficiency of genistin family in concentrated soybean protein,Crude diglycosidase; [43],29.6%
same,Decomposition efficiency of genistin family in defatted soybean,Crude diglycosidase; [43],9.6%
same,Decomposition efficiency of genistin family in concentrated soybean protein,Crude diglycosidase; [44],30.3%
same,Decomposition efficiency of genistin family in defatted soybean,Crude diglycosidase; [44],22.1%
same,Decomposition efficiency of genistin family in concentrated soybean protein,Crude diglycosidase; [45],32.3%
same,Decomposition efficiency of genistin family in defatted soybean,Crude diglycosidase; [45],35.3%
same,Decomposition efficiency of genistin family in concentrated soybean protein,Crude diglycosidase; [46],51.9%
same,Decomposition efficiency of genistin family in defatted soybean,Crude diglycosidase; [46],57.8%
same,Decomposition efficiency of genistin family in roasted soy flour,Crude diglycosidase; [47],50.2%
same,Decomposition efficiency of genistin family in soymilk,Crude diglycosidase; [47],31.0%
same,Decomposition efficiency of genistin family in roasted soy flour,Crude diglycosidase; [48],7.8%
same,Decomposition efficiency of genistin family in soymilk,Crude diglycosidase; [48],10.6%
same,Decomposition efficiency of genistin family in roasted soy flour,Crude diglycosidase; [49],9.1%
same,Decomposition efficiency of genistin family in soymilk,Crude diglycosidase; [49],24.3%
same,Decomposition efficiency of genistin family in roasted soy flour,Crude diglycosidase; [50],18.4%
same,Decomposition efficiency of genistin family in soymilk,Crude diglycosidase; [50],43.9%
same,Decomposition efficiency of genistin family in roasted soy flour,Crude diglycosidase; [51],52.2%
same,Decomposition efficiency of genistin family in soymilk,Crude diglycosidase; [51],64.5%
